ChEMBL document CHEMBL3769397, “A new GLP-1 analogue with prolonged glucose-lowering activity in vivo via backbone-based modification at the N-terminus” (Bioorg Med Chem, 2016)

Assays:
[1] = Retention time of compound over 30 mins by HPLC analysis; type: physicochemical; conditions: 0.5 h
[2] = biological target: T1, DPP4 (dipeptidyl peptidase 4) (Homo sapiens, UniProt P27487); assay: Drug degradation assessed as recombinant human DPP4-mediated cleavage by measuring compound remaining after 2 hrs by RP-HPLC analysis; type: ADME; conditions: read-out: Stability
[3] = biological target: T1, DPP4 (dipeptidyl peptidase 4); assay: Drug degradation assessed as recombinant human DPP4-mediated cleavage by measuring compound remaining after 8 hrs by RP-HPLC analysis; type: ADME; conditions: read-out: Stability
[4] = biological target: T1, DPP4 (dipeptidyl peptidase 4); assay: Drug degradation assessed as recombinant human DPP4-mediated cleavage by measuring compound remaining after 12 hrs by RP-HPLC analysis; type: ADME; conditions: read-out: Stability
[5] = biological target: T1, DPP4 (dipeptidyl peptidase 4); assay: Half life of compound assessed as recombinant human DPP4-mediated cleavage by RP-HPLC analysis; type: ADME
[6] = biological target: T1, DPP4 (dipeptidyl peptidase 4); assay: Drug degradation assessed as recombinant human DPP4-mediated cleavage by measuring compound remaining after 1 hr by RP-HPLC analysis; type: ADME; conditions: read-out: Stability
[7] = biological target: T1, DPP4 (dipeptidyl peptidase 4); assay: Drug degradation assessed as recombinant human DPP4-mediated cleavage by measuring compound remaining after 4 hrs by RP-HPLC analysis; type: ADME; conditions: read-out: Stability

T1 sequence (P27487 whole entry): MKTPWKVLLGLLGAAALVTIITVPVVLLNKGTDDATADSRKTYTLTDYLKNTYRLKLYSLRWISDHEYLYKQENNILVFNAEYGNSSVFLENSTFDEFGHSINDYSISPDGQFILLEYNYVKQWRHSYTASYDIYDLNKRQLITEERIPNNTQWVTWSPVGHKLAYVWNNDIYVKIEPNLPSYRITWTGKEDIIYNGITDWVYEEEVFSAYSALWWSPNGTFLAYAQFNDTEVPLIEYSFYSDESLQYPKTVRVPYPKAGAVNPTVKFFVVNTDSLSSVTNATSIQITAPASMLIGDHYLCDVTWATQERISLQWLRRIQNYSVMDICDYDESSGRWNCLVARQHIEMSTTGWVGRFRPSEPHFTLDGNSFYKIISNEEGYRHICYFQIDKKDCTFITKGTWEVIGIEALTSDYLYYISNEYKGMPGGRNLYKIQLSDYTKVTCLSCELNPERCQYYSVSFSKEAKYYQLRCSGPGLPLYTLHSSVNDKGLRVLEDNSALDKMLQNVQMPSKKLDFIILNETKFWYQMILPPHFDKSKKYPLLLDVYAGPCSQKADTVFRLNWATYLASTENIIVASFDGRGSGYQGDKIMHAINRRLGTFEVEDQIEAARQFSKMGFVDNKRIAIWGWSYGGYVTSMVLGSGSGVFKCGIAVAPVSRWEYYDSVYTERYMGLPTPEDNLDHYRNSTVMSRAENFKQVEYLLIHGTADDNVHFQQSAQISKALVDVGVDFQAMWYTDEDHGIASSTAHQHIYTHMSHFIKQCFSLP

Structure (SMILES)	Retention_time [1]	remaining at 2 h [2]	remaining at 8 h [3]	remaining at 12 h [4]	half-life [5]	remaining at 1 h [6]	remaining at 4 h [7]
CC[C@H](C)[C@H](NC(=O)[C@H](Cc1ccccc1)NC(=O)[C@H](CCC(=O)O)NC(=O)[C@H](CCCCN)NC(=O)[C@H](C)NC(=O)[C@H](C)NC(=O)[C@H](CCC(N)=O)NC(=O)CNC(=O)[C@H](CCC(=O)O)NC(=O)[C@H](CC(C)C)NC(=O)[C@H](Cc1ccc(O)cc1)NC(=O)[C@H](CO)NC(=O)[C@H](CO)NC(=O)[C@@H](NC(=O)[C@H](CC(=O)O)NC(=O)[C@H](CO)NC(=O)[C@@H](NC(=O)[C@H](Cc1ccccc1)NC(=O)[C@@H](NC(=O)CNC(=O)[C@H](CCC(=O)O)NC(=O)[C@H](C)N(C)C(=O)[C@@H](N)Cc1cnc[nH]1)[C@@H](C)O)[C@@H](C)O)C(C)C)C(=O)N[C@@H](C)C(=O)N[C@@H](Cc1c[nH]c2ccccc12)C(=O)N[C@@H](CC(C)C)C(=O)N[C@H](C(=O)N[C@@H](CCCCN)C(=O)NCC(=O)N[C@@H](CCCNC(=N)N)C(N)=O)C(C)C	14.702 min	17.6%	0%	0%	0.83 h	42.7%	4.3%
CC[C@H](C)[C@H](NC(=O)[C@H](Cc1ccccc1)NC(=O)[C@H](CCC(=O)O)NC(=O)[C@H](CCCCN)NC(=O)[C@H](C)NC(=O)[C@H](C)NC(=O)[C@H](CCC(N)=O)NC(=O)CNC(=O)[C@H](CCC(=O)O)NC(=O)[C@H](CC(C)C)NC(=O)[C@H](Cc1ccc(O)cc1)NC(=O)[C@H](CO)NC(=O)[C@H](CO)NC(=O)[C@@H](NC(=O)[C@H](CC(=O)O)NC(=O)[C@H](CO)NC(=O)[C@@H](NC(=O)[C@H](Cc1ccccc1)NC(=O)[C@@H](NC(=O)CNC(=O)[C@H](CCC(=O)O)NC(=O)[C@H](C)NC(=O)[C@@H](N)Cc1c[nH]cn1)[C@@H](C)O)[C@@H](C)O)C(C)C)C(=O)N[C@@H](C)C(=O)N[C@@H](Cc1c[nH]c2ccccc12)C(=O)N[C@@H](CC(C)C)C(=O)N[C@H](C(=O)N[C@@H](CCCCN)C(=O)NCC(=O)N[C@@H](CCCNC(=N)N)C(N)=O)C(C)C	14.611 min	–	–	–	–	–	–
CC[C@H](C)[C@H](NC(=O)[C@H](Cc1ccccc1)NC(=O)[C@H](CCC(=O)O)NC(=O)[C@H](CCCCN)NC(=O)[C@H](C)NC(=O)[C@H](C)NC(=O)[C@H](CCC(N)=O)NC(=O)CNC(=O)[C@H](CCC(=O)O)NC(=O)[C@H](CC(C)C)NC(=O)[C@H](Cc1ccc(O)cc1)NC(=O)[C@H](CO)NC(=O)[C@H](CO)NC(=O)[C@@H](NC(=O)[C@H](CC(=O)O)NC(=O)[C@H](CO)NC(=O)[C@@H](NC(=O)[C@H](Cc1ccccc1)NC(=O)[C@@H](NC(=O)CN(C)C(=O)[C@H](CCC(=O)O)NC(=O)[C@H](C)NC(=O)[C@@H](N)Cc1cnc[nH]1)[C@@H](C)O)[C@@H](C)O)C(C)C)C(=O)N[C@@H](C)C(=O)N[C@@H](Cc1c[nH]c2ccccc12)C(=O)N[C@@H](CC(C)C)C(=O)N[C@H](C(=O)N[C@@H](CCCCN)C(=O)NCC(=O)N[C@@H](CCCNC(=N)N)C(N)=O)C(C)C	14.289 min	55.5%	15.1%	7.5%	2.42 h	75.1%	32.6%
CC[C@H](C)[C@H](NC(=O)[C@H](Cc1ccccc1)NC(=O)[C@H](CCC(=O)O)NC(=O)[C@H](CCCCN)NC(=O)[C@H](C)NC(=O)[C@H](C)NC(=O)[C@H](CCC(N)=O)NC(=O)CNC(=O)[C@H](CCC(=O)O)NC(=O)[C@H](CC(C)C)NC(=O)[C@H](Cc1ccc(O)cc1)NC(=O)[C@H](CO)NC(=O)[C@H](CO)NC(=O)[C@@H](NC(=O)[C@H](CC(=O)O)NC(=O)[C@H](CO)NC(=O)[C@@H](NC(=O)[C@H](Cc1ccccc1)NC(=O)[C@@H](NC(=O)CNC(=O)[C@H](CCC(=O)O)N(C)C(=O)[C@H](C)NC(=O)[C@@H](N)Cc1cnc[nH]1)[C@@H](C)O)[C@@H](C)O)C(C)C)C(=O)N[C@@H](C)C(=O)N[C@@H](Cc1c[nH]c2ccccc12)C(=O)N[C@@H](CC(C)C)C(=O)N[C@H](C(=O)N[C@@H](CCCCN)C(=O)NCC(=O)N[C@@H](CCCNC(=N)N)C(N)=O)C(C)C	14.612 min	100%	100%	100%	> 96 h	100%	100%
CC[C@H](C)[C@H](NC(=O)[C@H](Cc1ccccc1)NC(=O)[C@H](CCC(=O)O)NC(=O)[C@H](CCCCN)NC(=O)[C@H](C)NC(=O)[C@H](C)NC(=O)[C@H](CCC(N)=O)NC(=O)CNC(=O)[C@H](CCC(=O)O)NC(=O)[C@H](CC(C)C)NC(=O)[C@H](Cc1ccc(O)cc1)NC(=O)[C@H](CO)NC(=O)[C@H](CO)NC(=O)[C@@H](NC(=O)[C@H](CC(=O)O)NC(=O)[C@H](CO)NC(=O)[C@@H](NC(=O)[C@H](Cc1ccccc1)NC(=O)[C@H]([C@@H](C)O)N(C)C(=O)CNC(=O)[C@H](CCC(=O)O)NC(=O)[C@H](C)NC(=O)[C@@H](N)Cc1cnc[nH]1)[C@@H](C)O)C(C)C)C(=O)N[C@@H](C)C(=O)N[C@@H](Cc1c[nH]c2ccccc12)C(=O)N[C@@H](CC(C)C)C(=O)N[C@H](C(=O)N[C@@H](CCCCN)C(=O)NCC(=O)N[C@@H](CCCNC(=N)N)C(N)=O)C(C)C	14.721 min	55.4%	10.7%	0%	2.7 h	69.8%	33.2%
CC[C@H](C)[C@H](NC(=O)[C@H](Cc1ccccc1)NC(=O)[C@H](CCC(=O)O)NC(=O)[C@H](CCCCN)NC(=O)[C@H](C)NC(=O)[C@H](C)NC(=O)[C@H](CCC(N)=O)NC(=O)CNC(=O)[C@H](CCC(=O)O)NC(=O)[C@H](CC(C)C)NC(=O)[C@H](Cc1ccc(O)cc1)NC(=O)[C@H](CO)NC(=O)[C@H](CO)NC(=O)[C@@H](NC(=O)[C@H](CC(=O)O)NC(=O)[C@H](CO)NC(=O)[C@@H](NC(=O)[C@H](Cc1ccccc1)N(C)C(=O)[C@@H](NC(=O)CNC(=O)[C@H](CCC(=O)O)NC(=O)[C@H](C)NC(=O)[C@@H](N)Cc1cnc[nH]1)[C@@H](C)O)[C@@H](C)O)C(C)C)C(=O)N[C@@H](C)C(=O)N[C@@H](Cc1c[nH]c2ccccc12)C(=O)N[C@@H](CC(C)C)C(=O)N[C@H](C(=O)N[C@@H](CCCCN)C(=O)NCC(=O)N[C@@H](CCCNC(=N)N)C(=O)O)C(C)C	14.127 min	66.3%	17.6%	6.1%	3.46 h	79.4%	42.7%
